Measurements taken from patent US20250332266A1, “COMPOUNDS FOR THE DEGRADATION OF EGFR KINASE” (BeiGene Switzerland GmbH, priority 2022, published 2025).

How the values were obtained:
[1] = molecular target: EGFR Del19/T790M/C797S (H1975-clone #28) (Homo sapiens, UniProt P00533, T790M/C797S, form not given); assay: EGFR degradation, HTRF total-EGFR assay, H1975-clone #28 (DTC); type: cell-based; details: H1975-clone #28 Del19/T790M/C797S, 16 h treatment
Summary of the method: (§1)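 H1975 clones with endogenous EGFR knocked out and homozygous exogenous EGFR mutants (#28 Del19/T790M/C797S; #25 L858R/T790M/C797S) treated 16 h at 37 °C, 8 doses, 5-fold from 10 μM, 0.2% DMSO. Total EGFR measured by HTRF on lysates, normalised to DMSO controls; DC50 and Dmax from curve fit.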

[2] = molecular target: T1, EGFR L858R/T790M/C797S (H1975-clone #25) (Homo sapiens, UniProt P00533, C797S/L858R/T790M); assay: EGFR degradation, HTRF total-EGFR assay, H1975-clone #25 (LTC); type: cell-based; details: H1975-clone #25 L858R/T790M/C797S, 16 h treatment
T1 construct: expressed in transfected cells; host or cells: H1975 (clone #25), lentiviral transduction, endogenous EGFR knocked out
Summary of the method: as §1

T1 sequence (P00533 25-1210 T790M/C797S/L858R): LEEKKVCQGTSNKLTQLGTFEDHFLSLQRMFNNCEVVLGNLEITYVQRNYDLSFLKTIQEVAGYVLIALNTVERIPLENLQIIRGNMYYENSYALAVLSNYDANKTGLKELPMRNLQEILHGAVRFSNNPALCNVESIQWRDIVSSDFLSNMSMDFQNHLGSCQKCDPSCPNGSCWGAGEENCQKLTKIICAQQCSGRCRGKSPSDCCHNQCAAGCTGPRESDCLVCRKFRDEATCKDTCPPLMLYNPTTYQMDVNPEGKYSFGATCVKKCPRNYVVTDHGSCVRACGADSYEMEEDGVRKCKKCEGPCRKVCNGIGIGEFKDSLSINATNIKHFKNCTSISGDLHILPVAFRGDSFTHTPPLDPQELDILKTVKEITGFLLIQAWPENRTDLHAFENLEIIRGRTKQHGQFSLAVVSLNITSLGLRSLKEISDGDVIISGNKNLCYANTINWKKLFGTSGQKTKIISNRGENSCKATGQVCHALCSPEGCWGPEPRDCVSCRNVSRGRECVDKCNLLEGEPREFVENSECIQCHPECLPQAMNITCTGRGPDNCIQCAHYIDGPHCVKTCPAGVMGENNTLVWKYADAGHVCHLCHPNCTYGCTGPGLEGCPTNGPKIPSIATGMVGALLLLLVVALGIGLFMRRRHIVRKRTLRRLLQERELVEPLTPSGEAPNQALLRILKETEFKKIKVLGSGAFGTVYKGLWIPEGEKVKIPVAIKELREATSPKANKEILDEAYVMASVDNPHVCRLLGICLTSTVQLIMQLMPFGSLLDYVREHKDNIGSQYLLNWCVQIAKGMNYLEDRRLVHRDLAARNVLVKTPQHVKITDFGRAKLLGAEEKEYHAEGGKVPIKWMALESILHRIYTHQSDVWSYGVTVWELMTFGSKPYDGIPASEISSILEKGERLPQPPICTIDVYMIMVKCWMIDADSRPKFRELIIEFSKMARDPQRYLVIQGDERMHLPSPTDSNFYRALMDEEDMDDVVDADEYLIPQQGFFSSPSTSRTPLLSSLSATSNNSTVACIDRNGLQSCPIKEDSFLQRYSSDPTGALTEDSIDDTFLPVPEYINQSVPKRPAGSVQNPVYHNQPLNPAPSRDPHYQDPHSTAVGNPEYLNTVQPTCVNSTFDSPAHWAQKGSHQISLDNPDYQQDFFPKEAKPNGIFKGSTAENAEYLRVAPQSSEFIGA
EGFR Del19/T790M/C797S (H1975-clone #28), sequence (P00533 with tags, fused parts or gaps DEL746-750/T790M/C797S, form open): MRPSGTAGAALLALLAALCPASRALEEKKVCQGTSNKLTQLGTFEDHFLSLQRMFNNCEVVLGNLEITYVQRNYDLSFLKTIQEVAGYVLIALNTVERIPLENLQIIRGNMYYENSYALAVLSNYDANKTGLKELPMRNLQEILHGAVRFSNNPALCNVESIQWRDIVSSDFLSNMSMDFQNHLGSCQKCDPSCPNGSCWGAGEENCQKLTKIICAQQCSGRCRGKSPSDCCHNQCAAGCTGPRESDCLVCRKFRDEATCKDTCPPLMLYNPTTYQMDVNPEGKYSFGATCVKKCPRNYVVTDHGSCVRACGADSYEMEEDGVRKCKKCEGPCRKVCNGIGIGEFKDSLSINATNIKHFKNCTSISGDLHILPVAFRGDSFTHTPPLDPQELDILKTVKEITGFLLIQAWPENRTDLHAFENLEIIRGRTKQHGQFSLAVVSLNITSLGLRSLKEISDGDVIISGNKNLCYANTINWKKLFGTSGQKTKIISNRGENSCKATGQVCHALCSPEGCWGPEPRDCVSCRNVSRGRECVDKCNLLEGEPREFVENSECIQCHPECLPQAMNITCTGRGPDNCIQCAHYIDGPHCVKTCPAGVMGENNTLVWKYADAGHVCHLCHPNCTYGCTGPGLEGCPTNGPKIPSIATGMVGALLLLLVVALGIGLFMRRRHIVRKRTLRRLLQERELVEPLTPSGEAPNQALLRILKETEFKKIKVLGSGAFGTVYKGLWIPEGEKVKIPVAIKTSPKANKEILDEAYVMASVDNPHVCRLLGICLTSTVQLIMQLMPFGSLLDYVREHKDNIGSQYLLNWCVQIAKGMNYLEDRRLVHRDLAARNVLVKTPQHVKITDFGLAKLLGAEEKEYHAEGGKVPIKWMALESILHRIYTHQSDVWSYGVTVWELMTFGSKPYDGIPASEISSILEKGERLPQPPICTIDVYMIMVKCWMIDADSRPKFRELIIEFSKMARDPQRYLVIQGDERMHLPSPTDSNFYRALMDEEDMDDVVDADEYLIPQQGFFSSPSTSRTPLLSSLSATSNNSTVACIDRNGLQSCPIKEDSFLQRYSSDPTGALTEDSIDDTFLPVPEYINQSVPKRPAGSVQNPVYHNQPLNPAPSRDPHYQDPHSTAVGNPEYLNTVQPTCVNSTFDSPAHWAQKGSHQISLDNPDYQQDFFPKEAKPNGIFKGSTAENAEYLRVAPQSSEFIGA

| Structure (SMILES) | Degradation H1975 # 28 DTC [1] | Degradation H1975 # 25-LTC [2] |
| --- | --- | --- |
| Cc1cc2cc(n1)-c1cnn(C)c1OC[C@H]1C[C@@H](CN3/C(=N/C2=O)Nc2ccc(N4CC5(C4)CN(C4CCN(c6ccc(C7CCC(=O)NC7=O)nc6C)CC4)C5)cc23)C1 (some centres unmarked) [Example 113, 3-(5-(4-(6-((7^1s,7^3s,E)-1^1,2^6-dimethyl-3-oxo-5^2,5^3-dihydro-1^1H,5^1H-9-oxa-4-aza-5(2,1)-benzo[d]imidazola-2(2,4)-pyridina-1(4,5)-pyrazola-7(1,3)-cyclobutanacyclononaphane-5^6-yl)-2,6-diazaspiro[3.3]heptan-2-yl)piperidin-1-yl)-6-methylpyridin-2-yl)piperidine-2,6-dione] | 75.7 | 78.4 |
| Cc1cc2cc(n1)-c1cnn(C)c1OC[C@H]1C[C@@H](CN3/C(=N/C2=O)Nc2ccc(N(C)CC4CN(C5CCN(c6ccc(C7CCC(=O)NC7=O)nc6C)CC5)C4)cc23)C1 (some centres unmarked) [Example 114, 3-(5-(4-(3-((((7^1s,7^3s,E)-1^1,2^6-dimethyl-3-oxo-5^2,5^3-dihydro-1′H,5^1H-9-oxa-4-aza-5(2,1)-benzo[d]imidazola-2(2,4)-pyridina-1(4,5)-pyrazola-7(1,3)-cyclobutanacyclononaphane-5^6-yl)(methyl)amino)methyl)azetidin-1-yl)piperidin-1-yl)-6-methylpyridin-2-yl)piperidine-2,6-dione] | 79.0 | 86.8 |
| Cc1cc2cc(n1)-c1cnn(C)c1OC[C@H]1C[C@@H](CN3/C(=N/C2=O)Nc2ccc(N4C[C@@H]5C[C@H]4CN5C4CCN(c5ccc(C6CCC(=O)NC6=O)nc5C)CC4)cc23)C1 (stereo partly drawn) [Example 117, 3-(5-(4-((1S,4S)-5-((7^1s,7^3R,E)-1^1,2^6-dimethyl-3-oxo-5^2,5^3-dihydro-1^1H,5^1H-9-oxa-4-aza-5(2,1)-benzo[d]imidazola-2(2,4)-pyridina-1(4,5)-pyrazola-7(1,3)-cyclobutanacyclononaphane-5^6-yl)-2,5-diazabicyclo[2,2,1]heptan-2-yl)piperidin-1-yl)-6-methylpyridin-2-yl)piperidine-2,6-dione] | 78.2 | 90.6 |
| COC[C@@H]1CN(c2ccc3c(c2)N2C[C@H]4C[C@@H](COc5c(cnn5C)-c5cc(cc(C)n5)C(=O)/N=C/2N3)C4)CCN1C1CCN(c2cnc(C3CCC(=O)NC3=O)cc2C)CC1 (stereo partly drawn) [Example 120, 3-(5-(4-((S)-4-((7^1s,7^3R,E)-1^1,2^6-dimethyl-3-oxo-5^2,5^3-dihydro-1^1H,5^1H-9-oxa-4-aza-5(2,1)-benzo[d]imidazola-2(2,4)-pyridina-1(4,5)-pyrazola-7(1,3)-cyclobutanacyclononaphane-5^6-yl)-2-(methoxymethyl)piperazin-1-yl)piperidin-1-yl)-4-methylpyridin-2-yl)piperidine-2,6-dione] | 82.4 | 83.1 |
| Cc1cc2cc(n1)-c1cnn(C)c1OC[C@H]1C[C@@H](CN3/C(=N/C2=O)Nc2ccc(N4CCN(C5CCN(c6ccc(C7CCC(=O)NC7=O)nc6C)CC5)CC45COC5)cc23)C1 (some centres unmarked) [Example 124, 3-(5-(4-(5-((7^1s,7^3S,E)-1^1,2^6-dimethyl-3-oxo-5^2,5^3-dihydro-1^1H,5^1H-9-oxa-4-aza-5(2,1)-benzo[d]imidazola-2(2,4)-pyridina-1(4,5)-pyrazola-7(1,3)-cyclobutanacyclononaphane-5^6-yl)-2-oxa-5,8-diazaspiro[3.5]nonan-8-yl)piperidin-1-yl)-6-methylpyridin-2-yl)piperidine-2,6-dione] | 82.6 | 87.5 |
| Cc1cc2cc(n1)-c1cnn(C)c1OC[C@H]1C[C@@H](CN3/C(=N/C2=O)Nc2ccc(N4CC5CCC4CN5C4CCN(c5ccc(C6CCC(=O)NC6=O)nc5C)CC4)cc23)C1 (some centres unmarked) [Example 126, 3-(5-(4-(5-((7^1s,7^3s,E)-1^1,2^6-dimethyl-3-oxo-5^2,5^3-dihydro-1^1H,5^1H-9-oxa-4-aza-5(2,1)-benzo[d]imidazola-2(2,4)-pyridina-1(4,5)-pyrazola-7(1,3)-cyclobutanacyclononaphane-5^6-yl)-2,5-diazabicyclo[2.2.2]octan-2-yl)piperidin-1-yl)-6-methylpyridin-2-yl)piperidine-2,6-dione] | 80.5 | 85.9 |
| Cc1cc2cc(n1)-c1cnn(C)c1OC[C@H]1C[C@@H](CN3/C(=N/C2=O)Nc2ccc(N4C5CCC4CN(C4CCN(c6ccc(C7CCC(=O)NC7=O)nc6C)CC4)C5)cc23)C1 (some centres unmarked) [Example 127, 3-(5-(4-(8-((7^1s,7^3s,E)-1^1,2^6-dimethyl-3-oxo-5^2,5^3-dihydro-1^1H,5^1H-9-oxa-4-aza-5(2,1)-benzo[d]imidazola-2(2,4)-pyridina-1(4,5)-pyrazola-7(1,3)-cyclobutanacyclononaphane-5^6-yl)-3,8-diazabicyclo[3.2.1]octan-3-yl)piperidin-1-yl)-6-methylpyridin-2-yl)piperidine-2,6-dione] | 85.5 | 96.0 |
| Cc1cc2cc(n1)-c1cnn(C)c1OC[C@H]1C[C@@H](CN3/C(=N/C2=O)Nc2ccc(N4C5CCC4CN(C4CCN(c6cc(F)c([C@H]7CCC(=O)NC7=O)c(F)c6)CC4)C5)cc23)C1 [Example 128, (3R)-3-(4-(4-(8-((7^1s,7^3s,E)-1^1,2^6-dimethyl-3-oxo-5^2,5^3-dihydro-1^1H,5^1H-9-oxa-4-aza-5(2,1)-benzo[d]imidazola-2(2,4)-pyridina-1(4,5)-pyrazola-7(1,3)-cyclobutanacyclononaphane-5^6-yl)-3,8-diazabicyclo[3.2.1]octan-3-yl)piperidin-1-yl)-2,6-difluorophenyl)piperidine-2,6-dione] | 75.7 | 73.7 |
| Cc1cc2cc(n1)-c1cnn(C)c1OC[C@H]1C[C@@H](CN3/C(=N/C2=O)Nc2ccc(N4CCC5(CCN(C6CCN(c7cc(F)c([C@H]8CCC(=O)NC8=O)c(F)c7)CC6)C5)C4)cc23)C1 (stereo partly drawn) [Example 129, (3R)-3-(4-(4-(7-((7^1s,7^3s,E)-1^1,2^6-dimethyl-3-oxo-5^2,5^3-dihydro-1^1H,5^1H-9-oxa-4-aza-5(2,1)-benzo[d]imidazola-2(2,4)-pyridina-1(4,5)-pyrazola-7(1,3)-cyclobutanacyclononaphane-5^6-yl)-2,7-diazaspiro[4.4]nonan-2-yl)piperidin-1-yl)-2,6-difluorophenyl)piperidine-2,6-dione] | 73.2 | 72.7 |

Further lines, results first:

| Degradation H1975 # 28 DTC [1] | Degradation H1975 # 25-LTC [2] | Structure (SMILES) |
| --- | --- | --- |
| 83.2 | 89.5 | Cc1cc2cc(n1)-c1cnn(C)c1OC[C@H]1C[C@@H](CN3/C(=N/C2=O)Nc2ccc(N4CCN(C5CN(C6CCN(c7ccc(C8CCC(=O)NC8=O)nc7C)CC6)C5)CC4)cc23)C1 (some centres unmarked) [Example 121, 3-(5-(4-(3-(4-((7^1s,7^3s,E)-1^1,2^6-dimethyl-3-oxo-5^2,5^3-dihydro-1^1H,5^1H-9-oxa-4-aza-5(2,1)-benzo[d]imidazola-2(2,4)-pyridina-1(4,5)-pyrazola-7(1,3)-cyclobutanacyclononaphane-5^6-yl)piperazin-1-yl)azetidin-1-yl)piperidin-1-yl)-6-methylpyridin-2-yl)piperidine-2,6-dione] |
| 84.1 | 90.9 | Cc1cc2cc(n1)-c1cnn(C)c1OC[C@H]1C[C@@H](CN3/C(=N/C2=O)Nc2ccc(N4CC[C@H](N5CCN(c6ccc(C7CCC(=O)NC7=O)nc6C)CC5)C(F)(F)C4)cc23)C1 (stereo partly drawn) [Example 122, 3-(5-(4-((S)-1-((7^1s,7^3R,E)-1^1,2^6-dimethyl-3-oxo-5^2,5^3-dihydro-1^1H,5^1H-9-oxa-4-aza-5(2,1)-benzo[d]imidazola-2(2,4)-pyridina-1(4,5)-pyrazola-7(1,3)-cyclobutanacyclononaphane-5^6-yl)-3,3-difluoropiperidin-4-yl)piperazin-1-yl)-6-methylpyridin-2-yl)piperidine-2,6-dione] |
| 85.6 | 92.1 | Cc1cc2cc(n1)-c1cnn(C)c1OC[C@H]1C[C@@H](CN3/C(=N/C2=O)Nc2ccc(N4CCN([C@@H]5CCN(c6ccc(C7CCC(=O)NC7=O)nc6C)CC5(F)F)CC4)cc23)C1 (stereo partly drawn) [Example 123, 3-(5-((R)-4-(4-((7^1s,7^3S,E)-1^1,2^6-dimethyl-3-oxo-5^2,5^3-dihydro-1^1H,5^1H-9-oxa-4-aza-5(2,1)-benzo[d]imidazola-2(2,4)-pyridina-1(4,5)-pyrazola-7(1,3)-cyclobutanacyclononaphane-5^6-yl)piperazin-1-yl)-3,3-difluoropiperidin-1-yl)-6-methylpyridin-2-yl)piperidine-2,6-dione] |
| 89.9 | 86.8 | Cc1cc2cc(n1)-c1cnn(C)c1OC[C@H]1C[C@@H](CN3/C(=N/C2=O)Nc2ccc(N4CCN([C@H]5CCN(c6ccc(C7CCC(=O)NC7=O)nc6C)CC5(F)F)CC4)cc23)C1 (stereo partly drawn) [Example 125, 3-(5-((S)-4-(4-((7^1s,7^3R,E)-1^1,2^6-dimethyl-3-oxo-5^2,5^3-dihydro-1^1H,5^1H-9-oxa-4-aza-5(2,1)-benzo[d]imidazola-2(2,4)-pyridina-1(4,5)-pyrazola-7(1,3)-cyclobutanacyclononaphane-5^6-yl)piperazin-1-yl)-3,3-difluoropiperidin-1-yl)-6-methylpyridin-2-yl)piperidine-2,6-dione] |
